Paper PMC9499365, “Stereoselective Synthesis and Application of Gibberellic Acid-Derived Aminodiols” (International Journal of Molecular Sciences, 2022)

Experiments:
[1] = system: HeLa cells (cervical cancer); assay: MTT antiproliferative assay, HeLa; format: cell-based, human; conditions: Homo sapiens, 72 h, read-out: Growth inhibition (%) ± SEM
Experimental: (§1) The in vitro antiproliferative activities of the synthesized aminodiols 4–38 against a panel of different human cancer cell lines of gynecological origin, including cervical (SiHA and HeLa), breast (MCF7 and MDA-MB-231), and ovary (A2780) cancers were assayed by the MTT method. […] Cisplatin, a clinically applied anticancer agent, was used as a reference compound and the results are summarized in Figure 3 and Table S1 in Supporting Information. […] On the other hand, none of the prepared azole derivatives exerted relevant activity.
(§2) The growth-inhibitory effects of the gibberellic acid-based aminodiol derivatives were determined by a standard MTT (3-(4,5-dimethylthiazol-2-yl)-2,5-diphenyltetrazolium bromide) assay on a panel containing five cell lines, including Hela and Siha (cervical cancers); MDA-MB-231 and MCF-7 (breast cancers); and A2780 ovarian cancer cells. The most promising agents were additionally tested against NIH/3T3 mouse embryo fibroblast cells. All cell lines were purchased from the European Collection of Cell Cultures (Salisbury, UK) except SiHa, which was obtained from the American Tissue Culture Collection (Manassas, VA, USA). The cells were maintained in minimal essential medium supplemented with 10% fetal bovine serum, 1% non-essential amino acids, and 1% penicillin-streptomycin at 37 °C in a humidified atmosphere containing 5% CO2. All media and supplements were obtained from Lonza Group Ltd., (Basel, Switzerland). Cancer cells were seeded into 96-well plates (5000 cells/well), after an overnight incubation the test compound was added in 2 different concentrations (10 µM and 30 µM) and incubated for another 72 h under cell-culturing conditions. Then, 20 μL of 5 mg/mL MTT solution was added to each well and incubated for a further 4 h. The medium was removed, and the precipitated formazan crystals were dissolved in DMSO during 60 min of shaking at 37 °C. As the final step, the absorbance was measured at 545 nm by using a microplate reader (SPECTROStar Nano, BMG Labtech, Offenburg, Germany). Untreated cells were included as controls. […] These agents were additionally tested against NIH/3T3 fibroblasts to obtain results about their cancer selectivity. Two independent experiments were performed with five wells for each condition. Cisplatin (Ebewe GmbH, Unterach, Austria), a clinically used anticancer agent, was used as a positive control. Calculations were performed utilizing the GraphPad Prism 5.01 software (GraphPad Software Inc., San Diego, CA, USA).

[2] = system: SiHa cells (cervical cancer); assay: MTT antiproliferative assay, SiHa; format: cell-based, human; conditions: Homo sapiens, 72 h, read-out: Growth inhibition (%) ± SEM
Experimental: as §1, §2

[3] = system: MDA-MB-231 cells (breast cancer); assay: MTT antiproliferative assay, MDA-MB-231; format: cell-based, human; conditions: Homo sapiens, 72 h, read-out: Growth inhibition (%) ± SEM; for inhibition at 10 µM: MDA-MB-231, 10 μM; for inhibition at 30 µM: MDA-MB-231, 30 μM
Experimental: as §1, §2

[4] = system: A2780 ovarian cancer cells; assay: MTT antiproliferative assay, A2780; format: cell-based, human; conditions: Homo sapiens, 72 h, read-out: Growth inhibition (%) ± SEM; for inhibition at 10 µM: A2780, 10 μM; for inhibition at 30 µM: A2780, 30 μM
Experimental: as §1, §2

SMILES	melting point [°C]	inhibition at 10 µM [1] [%]	inhibition at 30 µM [1] [%]	inhibition at 10 µM [2] [%]	inhibition at 30 µM [2] [%]	inhibition at 10 µM [3] [%]	inhibition at 30 µM [3] [%]	inhibition at 10 µM [4] [%]	inhibition at 30 µM [4] [%]
CCOC(=O)[C@H]1c2c(C)cccc2[C@H]2CC[C@]3(O)C[C@@]21C[C@]3(O)CN[C@@H](C)c1ccccc1 [Compound 5, Ethyl (4bS,7S,8S,9aR,10R)-7,8-dihydroxy-1-methyl-8-((((S)-1-phenylethyl)amino)methyl)-4b,6,7,8,9,10-hexahydro-5H-7,9a-methanobenzo[a]azulene-10 carboxylate]		22.3 ± 5.01	51 ± 9.48	< 20	48.3 ± 4.04	< 20	64.9 ± 1.91	30.42 ± 0.22	51.6 ± 2.69
CCOC(=O)[C@H]1c2c(C)cccc2[C@H]2CC[C@]3(O)C[C@@]21C[C@]3(O)CNC(C)C [Compound 19, Ethyl (4bS,7S,8S,9aR,10R)-7,8-dihydroxy-8-((isopropylamino)methyl)-1-methyl-4b,6,7,8,9,10-hexahydro-5H-7,9a-methanobenzo[a]azulene-10-carboxylate]	102 to 103								
C#CCNC[C@@]1(O)C[C@]23C[C@@]1(O)CC[C@@H]2c1cccc(C)c1[C@@H]3C(=O)OCC [Compound 20, Ethyl (4bS,7S,8S,9aR,10R)-7,8-dihydroxy-1-methyl-8-((prop-2-yn-1-ylamino)methyl)-4b,6,7,8,9,10-hexahydro-5H-7,9a-methanobenzo[a]azulene-10-carboxylate]	111 to 112								
CCOC(=O)[C@@H]1c2c(C)cccc2C2CC[C@]3(O)C[C@@]21C[C@]3(O)CN[C@@H](C)c1cccc2ccccc12 (stereo partly drawn) [Compound 36, Ethyl (7S,8S,9aR,10S)-7,8-dihydroxy-1-methyl-8-((((S)-1-(naphthalen-1-yl)ethyl)amino)methyl)-4b,6,7,8,9,10-hexahydro-5H-7,9a-methanobenzo[a]azulene-10-carboxylate]		31.1 ± 2.01	95.4 ± 2.87	31.4 ± 1.21	97.69 ± 0.58	46.9 ± 1.05	95.53 ± 0.83	46.7 ± 1.46	94.81 ± 0.11
CCOC(=O)[C@@H]1c2c(C)cccc2C2CC[C@]3(O)C[C@@]21C[C@]3(O)CN[C@H](C)c1cccc2ccccc12 (stereo partly drawn) [Compound 37, Ethyl (7S,8S,9aR,10S)-7,8-dihydroxy-1-methyl-8-((((R)-1-(naphthalen-1-yl)ethyl)amino)methyl)-4b,6,7,8,9,10-hexahydro-5H-7,9a-methanobenzo[a]azulene-10-carboxylate]		35.8 ± 0.42	97.35 ± 0.69	34.5 ± 1.89	97.58 ± 0.47	< 20	96.64 ± 0.17	35.9 ± 0.89	96 ± 0.99

Now from value to molecule, other results behind:

melting point [°C]	SMILES	inhibition at 10 µM [1] [%]	inhibition at 30 µM [1] [%]	inhibition at 10 µM [2] [%]	inhibition at 30 µM [2] [%]	inhibition at 10 µM [3] [%]	inhibition at 30 µM [3] [%]	inhibition at 10 µM [4] [%]	inhibition at 30 µM [4] [%]
84 to 86	CCOC(=O)[C@H]1c2c(C)cccc2[C@H]2CC[C@]3(O)C[C@@]21C[C@]3(O)CN1CCCCC1 [Compound 21, Ethyl (4bS,7S,8S,9aR,10R)-7,8-dihydroxy-1-methyl-8-(piperidin-1-ylmethyl)-4b,6,7,8,9,10-hexahydro-5H-7,9a-methanobenzo[a]azulene-10-carboxylate]								
42 to 45	CCOC(=O)[C@H]1c2c(C)cccc2[C@H]2CC[C@]3(O)C[C@@]21C[C@]3(O)CN1CCN(C)CC1 [Compound 22, Ethyl (4bS,7S,8S,9aR,10R)-7,8-dihydroxy-1-methyl-8-((4-methylpiperazin-1-yl)methyl)-4b,6,7,8,9,10-hexahydro-5H-7,9a-methanobenzo[a]azulene-10-carboxylate]								
87 to 89	CCOC(=O)[C@H]1c2c(C)cccc2[C@H]2CC[C@]3(O)C[C@@]21C[C@]3(O)Cn1cncn1 [Compound 28, Ethyl (4bS,7S,8S,9aR,10R)-8-((1H-1,2,4-triazol-1-yl)methyl)-7,8-dihydroxy-1-methyl-4b,6,7,8,9,10-hexahydro-5H-7,9a-methanobenzo[a]azulene-10-carboxylate]								
